Reference: PubChem BioAssay AID328 (DTP/NCI, 2004)
Several values for one entry are separate records, joined by “and”; a condition that tells them apart may be missing. Equal values may be shown once. Toxic doses and inconclusive results are not listed.

Tested on: BDF1 mice, P388 leukemia ip, median survival T/C
Test: NCI In Vivo Anticancer Drug Screen. Data for tumor model P388 Leukemia (intraperitoneal) in B6D2F1 (BDF1) mice
Conditions: endpoint: median survival time, higher = longer survival
Method in brief: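 Compound-treated tumour-bearing mice were compared with vehicle-treated controls. Survival was recorded, and the value is the treated-group measurement divided by the control-group measurement (T/C).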

[1] = dose: 25.0 mg/kg/injection, schedule: Q01DX009 (ip), vehicle: saline with Tween-80
[2] = dose: 50.0 mg/kg/injection, schedule: Q01DX009 (ip), vehicle: saline with Tween-80
[3] = dose: 100.0 mg/kg/injection, schedule: Q01DX009 (ip), vehicle: saline with Tween-80
[4] = dose: 200.0 mg/kg/injection, schedule: Q01DX009 (ip), vehicle: saline with Tween-80
[5] = dose: 50.0 mg/kg/injection, schedule: Q04DX003 (ip), vehicle: saline with Tween-80
[6] = dose: 100.0 mg/kg/injection, schedule: Q04DX003 (ip), vehicle: saline with Tween-80
[7] = dose: 200.0 mg/kg/injection, schedule: Q04DX003 (ip), vehicle: saline with Tween-80
[8] = dose: 6.25 mg/kg/injection, schedule: Q01DX009 (ip), vehicle: saline
[9] = dose: 100.0 mg/kg/injection, schedule: Q01DX009 (ip), vehicle: Klucel (hydroxypropylcellulose) (HPC)
[10] = dose: 100.0 mg/kg/injection, schedule: Q04DX003 (ip), vehicle: Klucel (hydroxypropylcellulose) (HPC)
[11] = dose: 200.0 mg/kg/injection, schedule: Q01DX009 (ip), vehicle: Klucel (hydroxypropylcellulose) (HPC)
[12] = dose: 200.0 mg/kg/injection, schedule: Q04DX003 (ip), vehicle: Klucel (hydroxypropylcellulose) (HPC)

Cc1cc(C(C)(C)CC(C)(C)C)cc(O)c1O
T/C (dose: 100.0 mg/kg/injection, schedule: Q04DX003 (ip), vehicle: other): 113 % of control | T/C (dose: 200.0 mg/kg/injection, schedule: Q04DX003 (ip), vehicle: other): 109 % of control | T/C (dose: 400.0 mg/kg/injection, schedule: Q04DX003 (ip), vehicle: other): 100 % of control

CCCCOCN(COCCCC)C(C)(C)C
T/C (dose: 100.0 mg/kg/injection, schedule: Q01DX001 (ip), vehicle: saline): 120 % of control | T/C (dose: 200.0 mg/kg/injection, schedule: Q01DX001 (ip), vehicle: saline): 110 % of control

COc1cc(CCC(NC(C)=O)c2cccc(O)c(=O)c2)cc(OC)c1OC (stereo not given)
T/C [1]: 90 % of control | T/C [2]: 96 % of control | T/C [3]: 90 % of control | T/C [4]: 91 % of control

CCOC(=O)c1cnc2ccc3ccccc3n2c1=O
T/C (dose: 50.0 mg/kg/injection, schedule: Q04DX002 (ip), vehicle: saline with Tween-80): 101 % of control | T/C (dose: 100.0 mg/kg/injection, schedule: Q04DX002 (ip), vehicle: saline with Tween-80): 101 % of control | T/C (dose: 200.0 mg/kg/injection, schedule: Q04DX002 (ip), vehicle: saline with Tween-80): 93 % of control

c1ccc(CSc2ncnc3nc[nH]c23)nc1
T/C (dose: 50.0 mg/kg/injection, schedule: Q01DX009 (ip), vehicle: saline sonified): 100 % of control | T/C [5]: 105 % of control | T/C (dose: 100.0 mg/kg/injection, schedule: Q01DX009 (ip), vehicle: saline sonified): 111 % of control | T/C [6]: 100 % of control | T/C [7]: 100 % of control

O=C1C=CC(=O)N1c1ccc([N+](=O)[O-])cc1
T/C (dose: 5.25 mg/kg/injection, schedule: Q01DX009 (ip), vehicle: Klucel (hydroxypropylcellulose) (HPC)): 90 % of control | T/C (dose: 7.5 mg/kg/injection, schedule: Q04DX003 (ip), vehicle: Klucel (hydroxypropylcellulose) (HPC)): 116 % of control | T/C (dose: 10.5 mg/kg/injection, schedule: Q01DX009 (ip), vehicle: Klucel (hydroxypropylcellulose) (HPC)): 90 % of control | T/C (dose: 15.0 mg/kg/injection, schedule: Q04DX003 (ip), vehicle: Klucel (hydroxypropylcellulose) (HPC)): 95 % of control

O=P(N1CC=CCC1)(N1CC1)N1CC1
T/C (dose: 2.2 mg/kg/injection, schedule: Q01DX009 (ip), vehicle: saline): 115 % of control | T/C (dose: 3.3 mg/kg/injection, schedule: Q01DX009 (ip), vehicle: saline): 105 % of control | T/C (dose: 5.0 mg/kg/injection, schedule: Q01DX009 (ip), vehicle: saline): 161 % of control | T/C [8]: 190 % of control | T/C (dose: 7.5 mg/kg/injection, schedule: Q01DX009 (ip), vehicle: saline): 195 % of control | T/C (dose: 12.5 mg/kg/injection, schedule: Q01DX009 (ip), vehicle: saline): 245 % of control and 191 % of control | T/C (dose: 25.0 mg/kg/injection, schedule: Q01DX009 (ip), vehicle: saline): 87 % of control and 90 % of control

O=[N+]([O-])c1ccc2scc3c4ccccc4nc-3c2c1
T/C [8]: 103 % of control

COC(=O)C(Br)C(Br)N1C(=O)c2ccccc2C1=O (stereo not given)
T/C [9]: 100 % of control | T/C [10]: 104 % of control | T/C [11]: 104 % of control | T/C [12]: 100 % of control | T/C (dose: 400.0 mg/kg/injection, schedule: Q01DX009 (ip), vehicle: Klucel (hydroxypropylcellulose) (HPC)): 108 % of control | T/C (dose: 400.0 mg/kg/injection, schedule: Q04DX003 (ip), vehicle: Klucel (hydroxypropylcellulose) (HPC)): 109 % of control

COc1ccc2c(c1)CCC(CC(C)=O)C2=O (stereo not given)
T/C (dose: 100.0 mg/kg/injection, schedule: Q04DX003 (ip), vehicle: saline sonified): 104 % of control | T/C (dose: 200.0 mg/kg/injection, schedule: Q04DX003 (ip), vehicle: saline sonified): 104 % of control | T/C (dose: 400.0 mg/kg/injection, schedule: Q04DX003 (ip), vehicle: saline sonified): 104 % of control

COc1ccc(CCN2C(=O)CSC2=S)cc1OC
T/C (dose: 100.0 mg/kg/injection, schedule: Q01DX001 (ip), vehicle: Klucel (hydroxypropylcellulose) (HPC)): 90 % of control | T/C (dose: 200.0 mg/kg/injection, schedule: Q01DX001 (ip), vehicle: Klucel (hydroxypropylcellulose) (HPC)): 100 % of control | T/C (dose: 400.0 mg/kg/injection, schedule: Q01DX001 (ip), vehicle: Klucel (hydroxypropylcellulose) (HPC)): 90 % of control

COCn1cnc2c(F)ncnc21
T/C (dose: 6.25 mg/kg/injection, schedule: Q01DX009 (ip), vehicle: Klucel (hydroxypropylcellulose) (HPC)): 86 % of control | T/C (dose: 6.25 mg/kg/injection, schedule: Q04DX003 (ip), vehicle: saline): 95 % of control | T/C (dose: 12.5 mg/kg/injection, schedule: Q01DX009 (ip), vehicle: Klucel (hydroxypropylcellulose) (HPC)): 90 % of control | T/C (dose: 12.5 mg/kg/injection, schedule: Q04DX003 (ip), vehicle: saline): 109 % of control | T/C (dose: 25.0 mg/kg/injection, schedule: Q01DX009 (ip), vehicle: Klucel (hydroxypropylcellulose) (HPC)): 86 % of control | T/C (dose: 25.0 mg/kg/injection, schedule: Q04DX003 (ip), vehicle: saline): 100 % of control

COC(CC(C)CCCC(C)(C)O)OC (stereo not given)
T/C (dose: 50.0 mg/kg/injection, schedule: Q01DX009 (ip), vehicle: Klucel (hydroxypropylcellulose) (HPC)): 110 % of control | T/C [9]: 110 % of control | T/C [10]: 100 % of control | T/C [11]: 110 % of control | T/C [12]: 112 % of control

CC(C=C1CCCCC1)C(=O)O (stereo not given)
T/C (dose: 100.0 mg/kg/injection, schedule: Q01DX009 (ip), vehicle: saline): 113 % of control | T/C (dose: 200.0 mg/kg/injection, schedule: Q01DX009 (ip), vehicle: saline): 109 % of control | T/C (dose: 400.0 mg/kg/injection, schedule: Q01DX009 (ip), vehicle: saline): 118 % of control

C1CCNCC1.O=C([CH-]C(=O)C(F)(F)F)c1ccc2c(c1)C(=O)c1ccccc1-2.O=C([CH-]C(=O)C(F)(F)F)c1ccc2c(c1)C(=O)c1ccccc1-2.O=C([CH-]C(=O)C(F)(F)F)c1ccc2c(c1)C(=O)c1ccccc1-2.O=C([CH-]C(=O)C(F)(F)F)c1ccc2c(c1)C(=O)c1ccccc1-2.[Eu+3]
T/C [9]: 102 % of control | T/C [11]: 102 % of control

CCCCCCCCCCCCCCCC(=O)N(CCCN)C(C)CCCN(CC)CC (stereo not given)
T/C (dose: 12.5 mg/kg/injection, schedule: Q01DX009 (ip), vehicle: saline with Tween-80): 106 % of control | T/C [1]: 99 % of control | T/C [5]: 107 % of control | T/C [6]: 93 % of control

COc1ccc2cc(Br)ccc2c1
T/C [6]: 95 % of control | T/C [7]: 109 % of control | T/C (dose: 400.0 mg/kg/injection, schedule: Q04DX003 (ip), vehicle: saline with Tween-80): 100 % of control

CCC1(O)CC(OC2CC(N(C)C)C(OC3CC(O)C(OC4CCC(=O)C(C)O4)C(C)O3)C(C)O2)c2c(cc3c(c2O)C(=O)c2c(O)ccc(O)c2C3=O)C1C(=O)OC (stereo not given)
T/C (dose: 2.88 mg/kg/injection, schedule: Q04DX003 (ip), vehicle: water): 181 % of control | T/C (dose: 4.8 mg/kg/injection, schedule: Q04DX003 (ip), vehicle: water): 236 % of control | T/C (dose: 1:8.0 dilution, schedule: Q01DX009 (ip), vehicle: saline): 173 % of control | T/C (dose: 1:64.0 dilution, schedule: Q01DX009 (ip), vehicle: saline): 116 % of control

O=C(O)CC(SC(c1ccccc1)(c1ccccc1)c1ccccc1)C(=O)O (stereo not given)
T/C (dose: 50.0 mg/kg/injection, schedule: Q04DX003 (ip), vehicle: Klucel (hydroxypropylcellulose) (HPC)): 86 % of control | T/C [10]: 86 % of control | T/C [12]: 95 % of control

CC1CN1P(=O)(Oc1ccccc1)N1CC1C (stereo not given)
T/C (dose: 65.0 mg/kg/injection, schedule: Q01DX009 (ip), vehicle: saline): 104 % of control

CCCCCCC(=O)CC(SCC)c1ccc(Cl)cc1 (stereo not given)
T/C [2]: 98 % of control | T/C [3]: 102 % of control | T/C [4]: 112 % of control
